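Results reflect a 48-hour exposure of cells in 96-well plates to compound at five concentrations. TGI: concentration producing complete growth inhibition.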

One test deals with PC-3 prostate. Briefly: NCI anticancer screen, dose series, 48 h.
The compound `C[C@]12CC[C@@H]3c4cc(OCC(F)(F)F)c(O)cc4CC[C@H]3[C@@H]1CC[C@@H]2O` displayed a TGI of 13.8 µM.
Regarding `CN(C)c1ccc(C(Cc2ccccc2)C2NC(=S)NC2=O)cc1` (stereo not drawn), the TGI was over 100 µM.
The compound `COc1ccc(C(=O)/C=C/c2ccc(O)c(O)c2)c(OC)c1` had a TGI of 26.4 µM.
The same measure, in the same setting: the value for `CN(C)CCCN1c2ccccc2Sc2ccc3ccccc3c21` was 14.6 µM.

The test system of another test is NCI/ADR-RES ovarian. As to the kind of experiment: NCI anticancer screen, dose series, 48 h.
As for `C[C@]12CC[C@@H]3c4cc(OCC(F)(F)F)c(O)cc4CC[C@H]3[C@@H]1CC[C@@H]2O`, the TGI is 36.8 µM.
On the same count and under the same terms, next, `CN(C)c1ccc(C(Cc2ccccc2)C2NC(=S)NC2=O)cc1` (stereo not drawn): over 100 µM; `COc1ccc(C(=O)/C=C/c2ccc(O)c(O)c2)c(OC)c1`: over 61.2 µM.
Still for that read-out and setting: the value for `CN(C)CCCN1c2ccccc2Sc2ccc3ccccc3c21` was 22.5 µM.

For a further test, the system named is OVCAR-8 ovarian. As to the kind of experiment: NCI anticancer screen, dose series, 48 h.
`C[C@]12CC[C@@H]3c4cc(OCC(F)(F)F)c(O)cc4CC[C@H]3[C@@H]1CC[C@@H]2O` registered a TGI of 34.3 µM.
Same read-out and setting: the value for `CN(C)c1ccc(C(Cc2ccccc2)C2NC(=S)NC2=O)cc1` (stereo not drawn) was over 100 µM; that for `COc1ccc(C(=O)/C=C/c2ccc(O)c(O)c2)c(OC)c1` was over 86.6 µM; that for `CN(C)CCCN1c2ccccc2Sc2ccc3ccccc3c21` was 27.1 µM.

The subject of a further test is SF-295 CNS. Briefly: NCI anticancer screen, dose series, 48 h.
For the compound `C[C@]12CC[C@@H]3c4cc(OCC(F)(F)F)c(O)cc4CC[C@H]3[C@@H]1CC[C@@H]2O`, the TGI turned out to be 11.6 µM.
On the same count and under the same terms, next, `CN(C)c1ccc(C(Cc2ccccc2)C2NC(=S)NC2=O)cc1` (stereo not drawn): over 100 µM.
Compound `COc1ccc(C(=O)/C=C/c2ccc(O)c(O)c2)c(OC)c1` registered a TGI of 31 µM.
Same read-out and setting: next, `CN(C)CCCN1c2ccccc2Sc2ccc3ccccc3c21`: 26.3 µM.

Another test concerns HT29 colon. As to the kind of experiment: NCI anticancer screen, dose series, 48 h.
The compound `C[C@]12CC[C@@H]3c4cc(OCC(F)(F)F)c(O)cc4CC[C@H]3[C@@H]1CC[C@@H]2O` had a TGI of 15.3 µM.
On to `CN(C)c1ccc(C(Cc2ccccc2)C2NC(=S)NC2=O)cc1` (stereo not drawn), for which the TGI was over 100 µM.
In turn, `COc1ccc(C(=O)/C=C/c2ccc(O)c(O)c2)c(OC)c1` showed a TGI of 32 µM.
For `CN(C)CCCN1c2ccccc2Sc2ccc3ccccc3c21`, the TGI was 12.5 µM.

In another test the test system is U251 CNS. Briefly: NCI anticancer screen, dose series, 48 h.
For the compound `C[C@]12CC[C@@H]3c4cc(OCC(F)(F)F)c(O)cc4CC[C@H]3[C@@H]1CC[C@@H]2O`, the TGI stood at 18.3 µM.
Regarding `CN(C)c1ccc(C(Cc2ccccc2)C2NC(=S)NC2=O)cc1` (stereo not drawn), the TGI was over 100 µM.
On the same count and under the same terms, next, `COc1ccc(C(=O)/C=C/c2ccc(O)c(O)c2)c(OC)c1`: 16.6 µM.
`CN(C)CCCN1c2ccccc2Sc2ccc3ccccc3c21`: the TGI turned out to be 20 µM.

The subject of a further test is UACC-257 melanoma. Briefly: NCI anticancer screen, dose series, 48 h.
`C[C@]12CC[C@@H]3c4cc(OCC(F)(F)F)c(O)cc4CC[C@H]3[C@@H]1CC[C@@H]2O`: the TGI amounted to 21.4 µM.
Same read-out and setting: next, `CN(C)c1ccc(C(Cc2ccccc2)C2NC(=S)NC2=O)cc1` (stereo not drawn): over 100 µM; `COc1ccc(C(=O)/C=C/c2ccc(O)c(O)c2)c(OC)c1`: 15.3 µM; `CN(C)CCCN1c2ccccc2Sc2ccc3ccccc3c21`: 4.1 µM.

In another test the test system is K-562 leukemia. As to the kind of experiment: NCI anticancer screen, dose series, 48 h.
The compound `C[C@]12CC[C@@H]3c4cc(OCC(F)(F)F)c(O)cc4CC[C@H]3[C@@H]1CC[C@@H]2O` had a TGI of 13.5 µM.
Same read-out and setting: the value for `CN(C)c1ccc(C(Cc2ccccc2)C2NC(=S)NC2=O)cc1` (stereo not drawn) was over 100 µM; that for `COc1ccc(C(=O)/C=C/c2ccc(O)c(O)c2)c(OC)c1` was over 37.6 µM.
`CN(C)CCCN1c2ccccc2Sc2ccc3ccccc3c21` had a TGI of 5.56 µM.

The test system of a further test is SNB-19 CNS. Briefly: NCI anticancer screen, dose series, 48 h.
The compound `C[C@]12CC[C@@H]3c4cc(OCC(F)(F)F)c(O)cc4CC[C@H]3[C@@H]1CC[C@@H]2O` yielded a TGI of 18.1 µM.
In turn, `CN(C)c1ccc(C(Cc2ccccc2)C2NC(=S)NC2=O)cc1` (stereo not drawn) showed a TGI of over 100 µM.
Consider `COc1ccc(C(=O)/C=C/c2ccc(O)c(O)c2)c(OC)c1`, for which the TGI came to 19.4 µM.
Same read-out and setting: next, `CN(C)CCCN1c2ccccc2Sc2ccc3ccccc3c21`: 28.8 µM.

In another test the test system is BT-549 breast. As to the kind of experiment: NCI anticancer screen, dose series, 48 h.
Compound `C[C@]12CC[C@@H]3c4cc(OCC(F)(F)F)c(O)cc4CC[C@H]3[C@@H]1CC[C@@H]2O` showed a TGI of 89.6 µM.
On the same count and under the same terms, the value for `CN(C)c1ccc(C(Cc2ccccc2)C2NC(=S)NC2=O)cc1` (stereo not drawn) was over 100 µM.
Same read-out and setting: the value for `COc1ccc(C(=O)/C=C/c2ccc(O)c(O)c2)c(OC)c1` was 20.4 µM.
Still for that read-out and setting: next, `CN(C)CCCN1c2ccccc2Sc2ccc3ccccc3c21`: 26.3 µM.

Another test concerns OVCAR-3 ovarian. As to the kind of experiment: NCI anticancer screen, dose series, 48 h.
As to `C[C@]12CC[C@@H]3c4cc(OCC(F)(F)F)c(O)cc4CC[C@H]3[C@@H]1CC[C@@H]2O`, the TGI was 12.9 µM.
Same read-out and setting: next, `CN(C)c1ccc(C(Cc2ccccc2)C2NC(=S)NC2=O)cc1` (stereo not drawn): over 100 µM; `COc1ccc(C(=O)/C=C/c2ccc(O)c(O)c2)c(OC)c1`: 2.66 µM.
On the same count and under the same terms, next, `CN(C)CCCN1c2ccccc2Sc2ccc3ccccc3c21`: 21.7 µM.

In the next test the test system is A498 renal. Briefly: NCI anticancer screen, dose series, 48 h.
On to `C[C@]12CC[C@@H]3c4cc(OCC(F)(F)F)c(O)cc4CC[C@H]3[C@@H]1CC[C@@H]2O`, for which the TGI stood at 20.7 µM.
On the same count and under the same terms, next, `CN(C)c1ccc(C(Cc2ccccc2)C2NC(=S)NC2=O)cc1` (stereo not drawn): over 100 µM; `COc1ccc(C(=O)/C=C/c2ccc(O)c(O)c2)c(OC)c1`: 21.2 µM.
On the same count and under the same terms, the value for `CN(C)CCCN1c2ccccc2Sc2ccc3ccccc3c21` was 14 µM.

The next test concerns EKVX NSCLC. Briefly: NCI anticancer screen, dose series, 48 h.
The compound `C[C@]12CC[C@@H]3c4cc(OCC(F)(F)F)c(O)cc4CC[C@H]3[C@@H]1CC[C@@H]2O` showed a TGI of 30.7 µM.
Take `CN(C)c1ccc(C(Cc2ccccc2)C2NC(=S)NC2=O)cc1` (stereo not drawn): the TGI was over 100 µM.
Still for that read-out and setting: next, `COc1ccc(C(=O)/C=C/c2ccc(O)c(O)c2)c(OC)c1`: over 79.6 µM; `CN(C)CCCN1c2ccccc2Sc2ccc3ccccc3c21`: 23.9 µM.

A further test relates to NCI-H522 lung. As to the kind of experiment: NCI anticancer screen, dose series, 48 h.
`C[C@]12CC[C@@H]3c4cc(OCC(F)(F)F)c(O)cc4CC[C@H]3[C@@H]1CC[C@@H]2O` registered a TGI of 3.88 µM.
Consider `CN(C)c1ccc(C(Cc2ccccc2)C2NC(=S)NC2=O)cc1` (stereo not drawn), for which the TGI is over 100 µM.
Same read-out and setting: next, `COc1ccc(C(=O)/C=C/c2ccc(O)c(O)c2)c(OC)c1`: 0.74 µM.
Still for that read-out and setting: the value for `CN(C)CCCN1c2ccccc2Sc2ccc3ccccc3c21` was 22.8 µM.

The subject of a further test is NCI-H460 lung. As to the kind of experiment: NCI anticancer screen, dose series, 48 h.
In turn, `C[C@]12CC[C@@H]3c4cc(OCC(F)(F)F)c(O)cc4CC[C@H]3[C@@H]1CC[C@@H]2O` showed a TGI of 15.5 µM.
On the same count and under the same terms, next, `CN(C)c1ccc(C(Cc2ccccc2)C2NC(=S)NC2=O)cc1` (stereo not drawn): over 100 µM.

For the origin of these results see PubChem BioAssay (NCI).
